Starred links: 1 amine or outer side, 2 acyl side, 3 side chain; linkers in the order of their positions; H or OH if unused. Positions of bridges follow the written chain, without caps; N, C: chain ends. Non-standard residues stand in square brackets, D forms with d. Residues, ends and D or L forms follow the SMILES beside them. Groups on a side chain read outwards from the residue. *: point of attachment. X7 = C[N+](C)(CCNC(=O)CC[C@H](NC(=O)CCCCCCCCCCCCCCCCC(=O)O)C(=O)O)CC(=O)*; X4 = O=C(O)CCCCCCCCCCCCCCC(=O)NC[C@H](NC(=O)CCCCCCCCCCCCCCC(=O)O)C(=O)*; Decanoyl(10-(4-HOOC-PhO)) = O=C(O)c1ccc(OCCCCCCCCCC(=O)*)cc1; X6 = C[N+](C)(CCNC(=O)CCCCCCCCCCCCCCCCC(=O)O)CC(=O)*; Trp(7-Me) = Cc1cccc2c(C[C@H](N)C(=O)O)c[nH]c12; C18 diacid = O=C(O)CCCCCCCCCCCCCCCCC(=O)*; γGlu = O=C(O)[C@H](CCC(=O)[*:2])N[*:1]; 2Nal = N[C@@H](Cc1ccc2ccccc2c1)C(=O)O; AEF = NCCOc1ccc(C[C@H](N)C(=O)O)cc1; 3Pal = N[C@@H](Cc1cccnc1)C(=O)O; Pen = CC(C)(S)[C@H](N)C(=O)O; Thp = NC1(C(=O)O)CCOCC1; AEEA = NCCOCCOCC(=O)O; Sar = CNCC(=O)O

The assay concerns the target T1, IL-23R (Homo sapiens, UniProt Q5VWK5).
T1 construct: HEK293 cells containing IL-23R, IL-12RP31 and a firefly luciferase reporter gene driven by a STAT-inducible promoter (Promega); host or cells: HEK293
T1 sequence (Q5VWK5 24-629): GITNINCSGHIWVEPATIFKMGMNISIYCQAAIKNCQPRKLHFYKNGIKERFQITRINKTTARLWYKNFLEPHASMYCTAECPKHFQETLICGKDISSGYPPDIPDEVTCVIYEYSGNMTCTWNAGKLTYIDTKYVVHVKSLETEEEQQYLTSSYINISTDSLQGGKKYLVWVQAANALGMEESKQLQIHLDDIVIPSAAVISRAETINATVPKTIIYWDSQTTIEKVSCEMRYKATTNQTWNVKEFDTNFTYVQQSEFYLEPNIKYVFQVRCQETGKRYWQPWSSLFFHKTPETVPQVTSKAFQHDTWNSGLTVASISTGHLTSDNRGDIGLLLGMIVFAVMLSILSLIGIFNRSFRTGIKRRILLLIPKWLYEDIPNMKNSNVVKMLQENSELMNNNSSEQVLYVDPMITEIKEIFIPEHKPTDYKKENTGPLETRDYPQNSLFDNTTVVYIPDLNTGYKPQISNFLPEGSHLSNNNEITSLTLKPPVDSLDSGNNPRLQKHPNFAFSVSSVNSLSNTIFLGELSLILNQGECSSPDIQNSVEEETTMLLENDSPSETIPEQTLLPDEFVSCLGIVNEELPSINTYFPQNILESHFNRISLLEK
In words: IL23R Reporter Assay. It is filed as cell-based. A digest of the protocol:
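Luminescence from BioGlo, read after cells were moved to 20 °C, followed a 5 h incubation at 37 °C, 5% CO2 with DMSO-diluted test compounds.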
For `CC(=O)NCCCC[C@@H]1NC(=O)[C@H](Cc2c[nH]c3c(C)cccc23)NC(=O)[C@H]([C@@H](C)O)NC(=O)[C@H](CCCCNC(=O)COCCOCCNC(=O)COCCOCCNC(=O)[C@@H]2CCCN2C(=O)[C@@H]2CCCN2C(=O)[C@@H]2CCCN2C(=O)CC[C@H](NC(=O)CCCCCCCCCCCCCCCCC(=O)O)C(=O)O)NC(=O)[C@@H](NC(=O)[C@@H](CCCNC(=N)N)NC(C)=O)C(C)(C)SSC(C)(C)[C@@H](C(=O)N[C@@H](Cc2ccc(OCCN)cc2)C(=O)N[C@@H](Cc2ccc3ccccc3c2)C(=O)NC2(C(=O)N[C@@H](CCCCNC(C)=O)C(=O)N[C@@H](CC(N)=O)C(=O)N[C@@H](Cc3cccnc3)C(=O)N(C)CC(N)=O)CCOCC2)NC1=O` [Example 99, MeCO-r-Pen*-K(PEG2PEG2PPPgEC18OH)-T-7MeW-K(Ac)-Pen*-AEF-2Nal-THP-K(Ac)-N-3Pya-Sar-CONH2] (Ac-[dR][Pen]K([AEEA-AEEA-Pro-Pro-Pro-γGlu-C18 diacid])T[Trp(7-Me)]K(Ac)[Pen][AEF][2Nal][Thp]K(Ac)N[3Pal][Sar]-NH2; disulfide 2-7), the IC50 (as a rule, the concentration that inhibits the measured activity by half) worked out at 0.096 nM.

Consider `CC(=O)NCCCC[C@@H]1NC(=O)[C@H](Cc2c[nH]c3c(C)cccc23)NC(=O)[C@H]([C@@H](C)O)NC(=O)[C@H](CC(N)=O)NC(=O)[C@@H](NC(C)=O)C(C)(C)SSC(C)(C)[C@@H](C(=O)N[C@@H](Cc2ccc(OCCN)cc2)C(=O)N[C@@H](Cc2ccc3ccccc3c2)C(=O)NC2(C(=O)N[C@@H](CCCCNC(=O)COCCOCCNC(=O)COCCOCCNC(=O)[C@@H]3CCCN3C(=O)CC[C@H](NC(=O)CCCCCCCCCCCCCCCCC(=O)O)C(=O)O)C(=O)N[C@@H](CC(N)=O)C(=O)N[C@@H](Cc3cccnc3)C(=O)N(C)CC(N)=O)CCOCC2)NC1=O` [Example 105, MeCO-Pen*-N-T-7MeW-K(Ac)-Pen*-AEF-2Nal-THP-K(PEG2PEG2PgEC18OH)-N-3Pya-Sar-CONH2] (Ac-[Pen]NT[Trp(7-Me)]K(Ac)[Pen][AEF][2Nal][Thp]K([AEEA-AEEA-Pro-γGlu-C18 diacid])N[3Pal][Sar]-NH2; disulfide 1-6), for which inhibition was half-maximal at 0.089 nM (IC50).

Turning to `CC(=O)NCCCC[C@@H]1NC(=O)[C@H](Cc2c[nH]c3c(C)cccc23)NC(=O)[C@H]([C@@H](C)O)NC(=O)[C@H](CC(N)=O)NC(=O)[C@@H](NC(C)=O)C(C)(C)SSC(C)(C)[C@@H](C(=O)N[C@@H](Cc2ccc(OCCN)cc2)C(=O)N[C@@H](Cc2ccc3ccccc3c2)C(=O)NC2(C(=O)N[C@@H](CCCCNC(=O)COCCOCCNC(=O)COCCOCCNC(=O)[C@@H]3CCCN3C(=O)[C@@H]3CCCN3C(=O)[C@@H]3CCCN3C(=O)CC[C@H](NC(=O)CCCCCCCCCCCCCCCCC(=O)O)C(=O)O)C(=O)N[C@@H](CC(N)=O)C(=O)N[C@@H](Cc3cccnc3)C(=O)N(C)CC(N)=O)CCOCC2)NC1=O` [Example 107, MeCO-Pen*-N-T-7MeW-K(Ac)-Pen*-AEF-2Nal-THP-K(PEG2PEG2PPPgEC18OH)-N-3Pya-Sar-CONH2], the IC50 came to 0.09 nM.

As for `CC(=O)NCCCC[C@@H]1NC(=O)[C@H](Cc2c[nH]c3c(C)cccc23)NC(=O)[C@H]([C@@H](C)O)NC(=O)[C@H](CC(N)=O)NC(=O)[C@@H](NC(C)=O)C(C)(C)SSC(C)(C)[C@@H](C(=O)N[C@@H](Cc2ccc(OCCN)cc2)C(=O)N[C@@H](Cc2ccc3ccccc3c2)C(=O)NC2(C(=O)N[C@@H](CCCCNC(=O)COCCOCCNC(=O)COCCOCCNC(=O)[C@H]3CCCN3C(=O)[C@H]3CCCN3C(=O)[C@H]3CCCN3C(=O)CC[C@H](NC(=O)CCCCCCCCCCCCCCCCC(=O)O)C(=O)O)C(=O)N[C@@H](CC(N)=O)C(=O)N[C@@H](Cc3cccnc3)C(=O)N(C)CC(N)=O)CCOCC2)NC1=O` [Example 108, MeCO-Pen*-N-T-7MeW-K(Ac)-Pen*-AEF-2Nal-THP-K(PEG2PEG2pppgEC18OH)-N-3Pya-Sar-CONH2], the midpoint of inhibition, the IC50, lay at 0.15 nM.

In the case of `CC(=O)NCCCC[C@@H]1NC(=O)[C@H](Cc2c[nH]c3c(C)cccc23)NC(=O)[C@H]([C@@H](C)O)NC(=O)[C@H](CC(N)=O)NC(=O)[C@@H](NC(C)=O)C(C)(C)SSC(C)(C)[C@@H](C(=O)N[C@@H](Cc2ccc(OCCN)cc2)C(=O)N[C@@H](Cc2ccc3ccccc3c2)C(=O)NC2(C(=O)N[C@@H](CCCCNC(=O)COCCOCCNC(=O)COCCOCCNC(=O)CC[C@H](NC(=O)CCCCCCCCCOc3ccc(C(=O)O)cc3)C(=O)O)C(=O)N[C@@H](CC(N)=O)C(=O)N[C@@H](Cc3cccnc3)C(=O)N(C)CC(N)=O)CCOCC2)NC1=O` [Example 111, MeCO-Pen*-N-T-7MeW-K(Ac)-Pen*-AEF-2Nal-THP-K(PEG2PEG2gEpXOH)-N-3Pya-Sar-CONH2] (Ac-[Pen]NT[Trp(7-Me)]K(Ac)[Pen][AEF][2Nal][Thp]K([AEEA-AEEA-γGlu-Decanoyl(10-(4-HOOC-PhO))])N[3Pal][Sar]-NH2; disulfide 1-6), the IC50 came out at 0.048 nM.

As for `CC(=O)NCCCC[C@@H]1NC(=O)[C@H](Cc2c[nH]c3c(C)cccc23)NC(=O)[C@H]([C@@H](C)O)NC(=O)[C@H](CC(N)=O)NC(=O)[C@@H](NC(C)=O)C(C)(C)SSC(C)(C)[C@@H](C(=O)N[C@@H](Cc2ccc(OCCN)cc2)C(=O)N[C@@H](Cc2ccc3ccccc3c2)C(=O)NC2(C(=O)N[C@@H](CCCCNC(=O)[C@H](CNC(=O)CCCCCCCCCCCCCCC(=O)O)NC(=O)CCCCCCCCCCCCCCC(=O)O)C(=O)N[C@@H](CC(N)=O)C(=O)N[C@@H](Cc3cccnc3)C(=O)N(C)CC(N)=O)CCOCC2)NC1=O` [Example 114, MeCO-Pen*-N-T-7MeW-K(Ac)-Pen*-AEF-2Nal-THP-K(DAP-(C16OH)2)-N-3Pya-Sar-CONH2] (Ac-[Pen]NT[Trp(7-Me)]K(Ac)[Pen][AEF][2Nal][Thp]K(X4)N[3Pal][Sar]-NH2; disulfide 1-6), it took 0.15 nM to reach half-maximal inhibition (IC50). This IC50 is about 3.1-fold higher than that of the compound before.

For `CC(=O)NCCCC[C@@H]1NC(=O)[C@H](Cc2c[nH]c3c(C)cccc23)NC(=O)[C@H]([C@@H](C)O)NC(=O)[C@H](CC(N)=O)NC(=O)[C@@H](NC(C)=O)C(C)(C)SSC(C)(C)[C@@H](C(=O)N[C@@H](Cc2ccc(OCCN)cc2)C(=O)N[C@@H](Cc2ccc3ccccc3c2)C(=O)NC2(C(=O)N[C@@H](CCCCNC(=O)COCCOCCNC(=O)COCCOCCNC(=O)CC[C@H](NC(=O)[C@H](CNC(=O)CCCCCCCCCCCCCCC(=O)O)NC(=O)CCCCCCCCCCCCCCC(=O)O)C(=O)O)C(=O)N[C@@H](CC(N)=O)C(=O)N[C@@H](Cc3cccnc3)C(=O)N(C)CC(N)=O)CCOCC2)NC1=O` [Example 116, MeCO-Pen*-N-T-7MeW-K(Ac)-Pen*-AEF-2Nal-THP-K(PEG2PEG2gE-DAP(C16OH)2)-N-3Pya-Sar-CONH2], the IC50 was found to be 0.15 nM.

`CC(=O)NCCCC[C@@H]1NC(=O)[C@H](Cc2c[nH]c3c(C)cccc23)NC(=O)[C@H]([C@@H](C)O)NC(=O)[C@H](CC(N)=O)NC(=O)[C@@H](NC(C)=O)C(C)(C)SSC(C)(C)[C@@H](C(=O)N[C@@H](Cc2ccc(OCCN)cc2)C(=O)N[C@@H](Cc2ccc3ccccc3c2)C(=O)NC2(C(=O)N[C@@H](CCCCNC(=O)COCCOCCNC(=O)COCCOCCNC(=O)C[N+](C)(C)CCNC(=O)CC[C@H](NC(=O)CCCCCCCCCCCCCCCCC(=O)O)C(=O)O)C(=O)N[C@@H](CC(N)=O)C(=O)N[C@@H](Cc3cccnc3)C(=O)N(C)CC(N)=O)CCOCC2)NC1=O` [Example 118, MeCO-Pen*-N-T-7MeW-K(Ac)-Pen*-AEF-2Nal-THP-K(PEG2PEG2SP6gEC18OH)-N-3Pya-Sar-CONH2] (Ac-[Pen]NT[Trp(7-Me)]K(Ac)[Pen][AEF][2Nal][Thp]K([AEEA-AEEA-X7])N[3Pal][Sar]-NH2; disulfide 1-6): the IC50 came out at 0.077 nM.

On to `CC(=O)NCCCC[C@@H]1NC(=O)[C@H](Cc2c[nH]c3c(C)cccc23)NC(=O)[C@H]([C@@H](C)O)NC(=O)[C@H](CCCCNC(=O)COCCOCCNC(=O)COCCOCCNC(=O)CC[C@H](NC(=O)CCCCCCCCCCCCCCCCC(=O)O)C(=O)O)NC(=O)[C@@H](NC(C)=O)C(C)(C)SSC(C)(C)[C@@H](C(=O)N[C@@H](Cc2ccc(OCCN)cc2)C(=O)N[C@@H](Cc2ccc3ccccc3c2)C(=O)NC2(C(=O)N[C@@H](CCCCNC(C)=O)C(=O)N[C@@H](CC(N)=O)C(=O)N[C@@H](Cc3cccnc3)C(=O)N(C)CC(N)=O)CCOCC2)NC1=O` [Example 122, MeCO-Pen*-K(PEG2PEG2gEC18OH)-T-7MeW-K(Ac)-Pen*-AEF-2Nal-THP-K(Ac)-N-3Pya-Sar-CONH2] (Ac-[Pen]K([AEEA-AEEA-γGlu-C18 diacid])T[Trp(7-Me)]K(Ac)[Pen][AEF][2Nal][Thp]K(Ac)N[3Pal][Sar]-NH2; disulfide 1-6), for which half-maximal inhibition (IC50) was put at 0.083 nM.

`CC(=O)NCCCC[C@@H]1NC(=O)[C@H](Cc2c[nH]c3c(C)cccc23)NC(=O)[C@H]([C@@H](C)O)NC(=O)[C@H](CC(N)=O)NC(=O)[C@@H](NC(C)=O)C(C)(C)SSC(C)(C)[C@@H](C(=O)N[C@@H](Cc2ccc(OCCN)cc2)C(=O)N[C@@H](Cc2ccc3ccccc3c2)C(=O)NC2(C(=O)N[C@@H](CCCCNC(=O)COCCOCCNC(=O)COCCOCCNC(=O)CC[C@H](NC(=O)C[N+](C)(C)CCNC(=O)CCCCCCCCCCCCCCCCC(=O)O)C(=O)O)C(=O)N[C@@H](CC(N)=O)C(=O)N[C@@H](Cc3cccnc3)C(=O)N(C)CC(N)=O)CCOCC2)NC1=O` [Example 123, MeCO-Pen*-N-T-7MeW-K(Ac)-Pen*-AEF-2Nal-THP-K(PEG2PEG2 gE SP6 C18OH)-N-3Pya-Sar-CONH2] (Ac-[Pen]NT[Trp(7-Me)]K(Ac)[Pen][AEF][2Nal][Thp]K([AEEA-AEEA-γGlu-X6])N[3Pal][Sar]-NH2; disulfide 1-6) yielded an IC50 of 0.073 nM.

The record behind these values is patent publication US12478617B2, “Lipidated peptide inhibitors of interleukin-23 receptor” (JANSSEN BIOTECH, INC., priority 2021, dated 2025).
